# How the values were obtained:
# [1] = target: T1, His-His-USP7 (aa208-560, |C315A|) (Homo sapiens, UniProt Q93009, C315A); assay: Evaluation of the inhibition of USP7 by the Fluorescence Intensity (FLINT) readings; assay type: biochemical; conditions: 0.25 nM His-His-USP7, compound incubated 60 minutes at 30° C., 500 nM Ubiquitin-Rhodamine-110 substrate; 50% reduction in kinetic rate
# T1 construct: His-His-USP7 (aa208-560, |C315A|); His-His (N)
# Procedure, shortened: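 IC50 reflects 50% reduction in kinetic rate of rhodamine-110 release (Ex485/Em535, reads every 3 min over 21 min), normalised to DMSO and no-enzyme controls, from an 11-point 4-parameter fit. Substrate is 500 nM Ub-Rh110, added after 60 min, 30 °C preincubation of compound with 0.25 nM USP7 aa208–560 C315A. Buffer is Bicine pH 8.0 with 10% DMSO.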
# [2] = system: Z138 mantle cell lymphoma tumour cell lines; assay: In vitro cytotoxicity, MTT assay; assay type: cell-based; conditions: Z138 cells exposed to the test compounds for 96 hours, cell viability vs DMSO treated cells
# Procedure, shortened: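 Z138 cells exposed to compounds for 96 hours, then MTT added for 4 hours. Viable cells quantified from formazan absorbance at 540 nm.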
# T1 sequence (Q93009 208-560 C315A): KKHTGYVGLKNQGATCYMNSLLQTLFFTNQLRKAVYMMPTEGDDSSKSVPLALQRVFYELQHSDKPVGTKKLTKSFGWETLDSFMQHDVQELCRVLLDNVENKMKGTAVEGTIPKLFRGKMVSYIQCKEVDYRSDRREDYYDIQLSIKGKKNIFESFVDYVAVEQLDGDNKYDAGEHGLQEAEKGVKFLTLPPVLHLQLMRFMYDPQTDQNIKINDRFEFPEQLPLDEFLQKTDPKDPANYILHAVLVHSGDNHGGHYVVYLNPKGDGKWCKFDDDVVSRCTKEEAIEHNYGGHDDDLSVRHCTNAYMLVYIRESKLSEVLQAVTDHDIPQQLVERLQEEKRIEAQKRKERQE
Structure (SMILES),IC50 [1] [nM],"IC50 ([2]; Homo sapiens, Z-138, 96 h) [µM]",IC50 [2] [µM]
"CO[C@]1(C#Cc2cncnc2)CC[C@@H](C(=O)N2CCC(O)(Cn3cnc(Oc4ccc(F)cc4)c(N)c3=O)CC2)[C@H](c2ccccc2)C1 [Example 139, 5-amino-6-(4-fluorophenoxy)-3-[(4-hydroxy-1{[(1R, 2R,4R)-4-methoxy-2-phenyl-4-[2-(pyrimidin-5-yl)ethynyl]cyclohexyl]carbonyl}piperidin-4-yl)methyl]pyrimidin-4-one]",49.7,0.0291,–
"Nc1c(Oc2ccc(F)cc2)ncn(CC2(O)CCN(C(=O)[C@@H]3CC[C@@](F)(C#Cc4cncnc4)C[C@H]3c3ccccc3)CC2)c1=O [Example 140, 5-amino-3-({1-[(1R,2R,4S)-4-fluoro-2-phenyl-4-[2-(pyrimidin-5-yl)ethynyl]cyclohexanecarbonyl]-4-hydroxypiperidin-4-yl}methyl)-6-(4-fluorophenoxy)-3,4-dihydropyrimidin-1-one]",69.1,0.0498,–
"Nc1c(Oc2ccc(F)cc2)ncn(CC2(O)CCN(C(=O)[C@@H]3CC[C@](F)(C#Cc4ncccn4)C[C@H]3c3ccccc3)CC2)c1=O [Example 141, 5-amino-3-[(1-{[(1R,2R,4R)-4-fluoro-2-phenyl-4-[2-(pyrimidin-2-yl)ethynyl]cyclohexyl]carbonyl}-4-hydroxypiperidin-4-yl)methyl]-6-(4-fluorophenoxy)pyrimidin-4-one]",41,0.0117,–
"Nc1c(Oc2ccc(F)cc2)ncn(CC2(O)CCN(C(=O)[C@@H]3CC[C@@](F)(C#Cc4ncccn4)C[C@H]3c3ccccc3)CC2)c1=O [Example 142, 5-amino-3-[(1-{[(1R,2R,4S)-4-fluoro-2-phenyl-4-[2-(pyrimidin-2-yl)ethynyl]cyclohexyl]carbonyl}-4-hydroxypiperidin-4-yl)methyl]-6-(4-fluorophenoxy)pyrimidin-4-one]",58.8,0.0176,–
"Nc1c(Oc2ccc(F)cc2)ncn(CC2(O)CCN(C(=O)[C@@H]3CC=C(C#Cc4ncccn4)C[C@H]3c3ccccc3)CC2)c1=O [Example 143, 5-amino-6-(4-fluorophenoxy)-3-[(4-hydroxy-1-{[(1R,6R)-6-phenyl-4-[2-(pyrimidin-2-yl)ethynyl]cyclohex-3-en-1-yl]carbonyl}piperidin-4-yl)methyl]pyrimidin-4-one]",56.5,0.0787,–
"Nc1c(Oc2ccc(F)cc2)ncn(CC2(O)CCN(C(=O)[C@@H]3CC[C@](F)(C#Cc4cncnc4)C[C@H]3c3ccccc3)CC2)c1=O [Example 144, 5-amino-3-({1-[(1R,2R,4R)-4-fluoro-2-phenyl-4-[2-(pyrimidin-5-yl)ethynyl]cyclohexanecarbonyl]-4-hydroxypiperidin-4-yl}methyl)-6-(4-fluorophenyoxy)-3,4-dihydropyrimidin-4-one]",21,0.0122,–
"Nc1c(Oc2ccc(F)cc2)ncn(CC2(O)CCN(C(=O)[C@@H]3CC[C@](F)(C#Cc4cccnn4)C[C@H]3c3ccccc3)CC2)c1=O [Example 145, 5-amino-3-[(1-{[(1R,2R,4R)-4-fluoro-2-phenyl-4-[2-(pyridazin-3-yl)ethynyl]cyclohexyl]carbonyl}-4-hydroxypiperidin-4-yl)methyl]-6-(4-fluorophenoxy)pyrimidin-4-one]",8.66,0.00231,–
"CO[C@]1(C#Cc2cccnn2)CC[C@@H](C(=O)N2CCC(O)(Cn3cnc(Oc4ccc(F)cc4)c(N)c3=O)CC2)[C@H](c2ccccc2)C1 [Example 146, 5-amino-6-(4-fluorophenoxy)-3-[(4-hydroxy-{[(1R,2R,4R)-4-methoxy-2-phenyl-4-[2-(pyridazin-3-yl)ethynyl]cyclohexyl]carbonyl}piperidin-4-yl)methyl]pyrimidin-4-one]",18.5,–,0.00597
"CO[C@@]1(C#Cc2cccnn2)CC[C@@H](C(=O)N2CCC(O)(Cn3cnc(Oc4ccc(F)cc4)c(N)c3=O)CC2)[C@H](c2ccccc2)C1 [Example 147, 5-amino-6-(4-fluorophenoxy)-3-[(4-hydroxy-1-{[(1R,2R,4S)-4-methoxy-2-phenyl-4-[2-(pyridazin-3-yl)ethynyl]cyclohexyl]carbonyl}piperidin-4-yl)methyl]pyrimidin-4-one]",124,0.199,–

# Second part, led by results:
IC50 [1] [nM],Structure (SMILES),"IC50 ([2]; Homo sapiens, Z-138, 96 h) [µM]",IC50 [2] [µM]
26.6,"Cc1nccnc1C#C[C@@]1(F)CC[C@@H](C(=O)N2CCC(O)(Cn3cnc(Oc4ccc(F)cc4)c(N)c3=O)CC2)[C@H](c2ccccc2)C1 [Example 148, 5-amino-3-({1-[(1R,2R,4R)-4-fluoro-4-[2-(3-methylpyrazin-2yl)ethynyl]-2-phenylcyclohexanecarbonyl]-4-hydroxypiperidin-4-yl}methyl)-6-(4-fluorophenoxy)-3,4-dihydropyrimidin-4-one]",0.0101,–
8.55,"Cn1ccnc1C#C[C@@]1(F)CC[C@@H](C(=O)N2CCC(O)(Cn3cnc(Oc4ccc(F)cc4)c(N)c3=O)CC2)[C@H](c2ccccc2)C1 [Example 149, 5-amino-3-[(1-{[(1R,2R,4R)-4-fluoro-4-[2-(1-methylimidazol-2-yl)ethynyl]-2-phenylcyclohexyl]carbonyl}-4-hydroxypiperidin-4-yl)methyl]-6-(4-fluorophenoxy)pyrimidin-4-one]",0.259,–
37.7,"Cc1cnc(C#CC2(F)CCC(C(=O)N3CCC(O)(Cn4cnc(Oc5ccc(F)cc5)c(N)c4=O)CC3)C(c3ccccc3)C2)cn1 [Example 150, 5-amino-3-({1-[1R,2R,4S)-4-fluoro-4-[2-(5-methylpyrazin-2-yl)ethynyl]-2-phenylcyclohexanecarbonyl]-4-hydroxypiperidin-4-yl}methyl)-6-(4-fluorophenoxy)-3,4-dihydropyrimidin-4-one]",0.0258,–
11.4,"Cc1cnc(C#C[C@]2(F)CC[C@@H](C(=O)N3CCC(O)(Cn4cnc(Oc5ccc(F)cc5)c(N)c4=O)CC3)[C@H](c3ccccc3)C2)cn1 [Example 151, 5-amino-3-({1-[(1R,2R,4S)-4-fluoro-4-[2-(5-methylpyrazin-2-yl)ethynyl]-2-phenylcyclohexanecarbonyl]-4-hydroxypiperidin-4-yl}methyl)-6-(4-fluorophenoxy)-3,4-dihydropyrimidin-4-one]",0.0191,–
30.3,Cn1ccnc1C#C[C@]1(F)CC[C@@H](C(=O)N2CCC(O)(Cn3cnc(Oc4ccc(F)cc4)c(N)c3=O)CC2)[C@H](c2ccccc2)C1 [Example 152],0.268,–
37.1,"Nc1c(Oc2ccc(F)cc2)ncn(CC2(O)CCN(C(=O)[C@@H]3CC[C@](F)(C#Cc4nccnc4Cl)C[C@H]3c3ccccc3)CC2)c1=O [Example 153, 5-amino-3-({1-[(1R,2R,4R)-4-[2-(3-chloropyrazin-2-yl)ethynyl]-4-fluoro-2-phenylcyclohexanecarbonyl]-4-hydroxypiperidin-4-yl}methyl)-6-(4-fluorophenoxy)-3,4-dihydropyrimidin-4-one]",0.0175,–
24.7,"COc1nccnc1C#C[C@@]1(F)CC[C@@H](C(=O)N2CCC(O)(Cn3cnc(Oc4ccc(F)cc4)c(N)c3=O)CC2)[C@H](c2ccccc2)C1 [Example 154, 5-amino-3-({1-[(1R,2R,4R)-4-fluoro-4-[2-(3-methoxypyrazin-2-yl)ethynyl]-2-phenylcyclohexanecarbonyl]-4-hydroxypiperidin-4-yl}methyl)-6-(4-fluorophenoxy)-3,4-dihydropyrimidin-4-one]",0.016,–
29.6,"CO[C@]1(C#Cc2cnccn2)CC[C@@H](C(=O)N2CCC(O)(Cn3cnc(Oc4ccc(F)cc4)c(N)c3=O)CC2)[C@H](c2ccccc2)C1 [Example 156, 5-amino-6-(4-fluorophenoxy)-3-({4-hydroxy-1-[(1R,2R,4R)-4-methoxy-2-phenyl-4-[2-(pyrazin-2-yl)ethynyl]cyclohexanecarbonyl]piperidin-4-yl}methyl)-3,4-dihydropyrimidin-4-one]",0.00653,–
6.77,"Nc1c(Oc2ccc(F)cc2)ncn(CC2(O)CCN(C(=O)[C@@H]3CC[C@](F)(C#Cc4cc(F)ccn4)C[C@H]3c3ccccc3)CC2)c1=O [Example 157, 5-amino-3-({1-[(1R,2R,4R)-4-fluoro-4-[2-(4-fluoropyridin-2-yl)ethynyl]-2-phenylcyclohexanecarbonyl]-4-hydroxypiperidin-4-yl}methyl)-6-(4-fluorophenoxy)-3,4-dihydropyrimidin-4-one]",0.00716,–
28.2,"CO[C@]1(C#Cc2nccn2C)CC[C@@H](C(=O)N2CCC(O)(Cn3cnc(Oc4ccc(F)cc4)c(N)c3=O)CC2)[C@H](c2ccccc2)C1 [Example 159, 5-amino-6-(4-fluorophenoxy)-3-[(4-hydroxy-1-{[(1R,2R,4R)-4-methoxy-4-[2-(1-methylimidazol-2-yl)ethynyl]-2-phenytcyclohexyl]carbonyl}piperidin-4-yl)methyl]pyrimidin-4-one]",0.0168,–
29.4,"Nc1cccc(C#C[C@@]2(F)CC[C@@H](C(=O)N3CCC(O)(Cn4cnc(Oc5ccc(F)cc5)c(N)c4=O)CC3)[C@H](c3ccccc3)C2)n1 [Example 161, 5-amino-3-[(1-{[(1R,2R,4R)-4-[2-(6-aminopyridin-2-yl)ethynyl]-4-fluoro-2-phenylcyclohexyl]carbonyl}-4-hydroxypiperidin-4-yl)methyl]-6-(4-fluurophenoxy)pyrimidin-4-one]",–,0.0126
